How the values were obtained:
Type in all cases: cell-based, C57BL/6N mice
[1] = tested on: intraperitoneal macrophages; assay: TNF-α and nitric oxide production by intraperitoneal macrophages after LPS/IFN-γ stimulation; settings: 100 ng/ml LPS and 5 ng/ml IFN-γ; sugar in the medium; supernatant after 20 to 24 hours; data not shown
Description: The obtained pDCs and cDCs were inoculated into a 96-well plate using glucose-free PRMI1640 medium with addition of 10 v/v % FCS, 100 μM 2-mercaptoethanol, 50 μg/ml streptomycin and 50 units/ml penicillin G, after which a rare sugar (D-allose, D-allulose or L-allulose) or D-glucose or D-fructose, was added to a final concentration of 0.2 w/v %. After administering 2 ml of 4 w/v % Brewer thioglycollate medium (Sigma) intraperitoneally to C57BL/6N mice, the intraperitoneal macrophages on the 3rd day were collected and used. After inoculation into the same medium as the DCs, stimulation was with 100 ng/ml of Lipopolysaccharide E. coli O111:B4 (Sigma) and 5 ng/ml of IFN-γ (Biolegend), the TNF-α in the culture supernatant after 20 to 24 hours was measured using ELISA by Biolegend and the nitric oxide was measured using a NO2/NO3 Assay Kit-C II (Colorimetric) (Griess Reagent Kit) (Dojindo Laboratories).

[2] = tested on: plasmacytoid dendritic cells (pDC); assay: Cytokine production by plasmacytoid dendritic cells (spleen or bone marrow) after TLR7/TLR9 ligand stimulation, ELISA of culture supernatant; settings: for IFN-α production accompanying stimulation of pDCs / IL-12 production accompanying stimulation of pDCs: stimulation with TLR7 ligand poly(U) or TLR9 ligand CpG DNA (D19 and 1668), sugar 0.2 w/v % in glucose-free medium
Description: CD317-positive cells were prepared by magnetic bead sorting (MACS) from spleen cells obtained from C57BL/6N mice (Clea Japan, Inc.), as plasmacytoid dendritic cells (pDC) (FIG. 1(A)). CD11c-positive cells in the CD317-negative cell fraction were then prepared using magnetic beads, as conventional dendritic cells (CDC) (FIG. 1(A)). CD317-positive cells were also prepared using magnetic beads from bone marrow cells obtained from C57BL/6N mice (Clea Japan, Inc.), as bone marrow pDCs (FIG. 1(B)).
The obtained pDCs and cDCs were inoculated into a 96-well plate using glucose-free PRMI1640 medium with addition of 10 v/v % FCS, 100 μM 2-mercaptoethanol, 50 μg/ml streptomycin and 50 units/ml penicillin G, after which a rare sugar (D-allose, D-allulose or L-allulose) or D-glucose or D-fructose, was added to a final concentration of 0.2 w/v %.
The pDCs were stimulated with non-stimulating medium and TLR7 ligand (polyuridylic acid at a final concentration of 2.5 μg/ml (Poly(U) (Sigma) mixed with Lipofectamine 2000 (Thermo Fisher Scientific)), 100 nM R848 (InvivoGen), or TLR9 ligand (synthetic DNA (3 μM of D19: 5′-GGtgcatcgatgcagGGGGg-3′ and 0.03 μM of 1668: 5′-[…]-3′ (where uppercase indicates phosphorothioate DNA and lowercase indicates phosphodiester DNA))), and the IFN-α in the culture supernatant after 20 to 24 hours was measured using ELISA by InvivoGen while the IL-12p40 was measured using ELISA by Biolegend.

[3] = tested on: conventional dendritic cells (cDC); assay: Cytokine production by spleen-derived conventional dendritic cells after stimulation, ELISA of culture supernatant
Description: CD317-positive cells were prepared by magnetic bead sorting (MACS) from spleen cells obtained from C57BL/6N mice (Clea Japan, Inc.), as plasmacytoid dendritic cells (pDC) (FIG. 1(A)). CD11c-positive cells in the CD317-negative cell fraction were then prepared using magnetic beads, as conventional dendritic cells (CDC) (FIG. 1(A)). CD317-positive cells were also prepared using magnetic beads from bone marrow cells obtained from C57BL/6N mice (Clea Japan, Inc.), as bone marrow pDCs (FIG. 1(B)). The obtained pDCs and cDCs were inoculated into a 96-well plate using glucose-free PRMI1640 medium with addition of 10 v/v % FCS, 100 μM 2-mercaptoethanol, 50 μg/ml streptomycin and 50 units/ml penicillin G, after which a rare sugar (D-allose, D-allulose or L-allulose) or D-glucose or D-fructose, was added to a final concentration of 0.2 w/v %. The cDCs were stimulated with non-stimulating medium, 100 nM of R848 and 1 μM of 1668, and the IL-12p40 in the culture supernatant after 20 to 24 hours was measured using ELISA by Biolegend.

[4] = supernatant after 20 to 24 hours
[5] = supernatant after 20 to 24 hours, IL-12p40 ELISA

| SMILES | TNF-α production by macrophages upon lipopolysaccharide (LPS) stimulation [1] | nitric oxide production by macrophages upon lipopolysaccharide (LPS) stimulation [1] | IFN-α production by pDCs after low molecular weight TLR7 ligand stimulation ([2]; low molecular weight TLR7 ligands including R848 (100 nM), sugar 0.2 w/v %, supernatant after 20 to 24 hours) | IL-12 production by pDCs after low molecular weight TLR7 ligand stimulation ([2]; low molecular weight TLR7 ligands including R848 (100 nM), sugar 0.2 w/v %, supernatant after 20 to 24 hours, IL-12p40 ELISA) | IFN-α production accompanying stimulation of pDCs [2, 4] | IL-12 production accompanying stimulation of pDCs [2, 5] | pDC cytokine production after activation in medium containing D-allose ([2]; summary statement) | IL-12 production by cDCs after CpG DNA (1668) stimulation ([3]; 1 μM 1668, sugar 0.2 w/v %, supernatant after 20 to 24 hours, IL-12p40 ELISA) | cDC cytokine production after activation in medium containing D-allose ([3]; summary statement) |
| --- | --- | --- | --- | --- | --- | --- | --- | --- | --- |
| O=C[C@H](O)[C@H](O)[C@H](O)[C@H](O)CO [D-allose] | not attenuated | not attenuated | not reduced | not reduced | notably attenuated | notably attenuated | lowered | not lowered | not lowered |
| O=C(CO)[C@H](O)[C@H](O)[C@H](O)CO [D-allulose] | not attenuated | not attenuated | – | – | not observed | not observed | – | – | – |
| O=C(CO)[C@@H](O)[C@H](O)[C@H](O)CO [D-fructose] | not attenuated | not attenuated | – | – | not observed | not observed | – | – | – |
| O=C[C@H](O)[C@@H](O)[C@H](O)[C@H](O)CO [D-glucose] | – | – | – | – | not observed | not observed | – | – | – |
| O=C(CO)[C@@H](O)[C@@H](O)[C@@H](O)CO [L-allulose] | not attenuated | not attenuated | – | – | not observed | not observed | – | – | – |

From patent US20240180937A1, “CYTOKINE PRODUCTION SUPPRESSING COMPOSITION CONTAINING D-ALLOSE AS ACTIVE COMPONENT, AND METHOD OF TREATING OR PREVENTING DISEASE ASSOCIATED WITH CYTOKINE OVERPRODUCTION USING SAME” (NATIONAL UNIVERSITY CORPORATION KAGAWA UNIVERSITY, priority 2021, published 2024)
